# Tests used:
# Assay type in all cases: cell-based
# [1] = tested on: Escherichia coli clinical isolates (ESBL-positive and ESBL-negative; ST131 subclones); test: Broth microdilution antimicrobial susceptibility, NorthShore ESBL case-control isolates
# Excerpt: As reported elsewhere, the 267 E. coli study isolates were collected between 2007 and 2010 as part of a prospective case-control study conducted at NorthShore University HealthSystem (Banerjee, R J et al. “Predictors and molecular epidemiology of community-onset extended-spectrum beta-lactamase (ESBL) Escherichia coli infection in a Midwestern community,” 2013 Infect Control Hosp Epidemiol; in press). Cases were defined as adults with ESBL-producing E. coli cultured from any specimen type. Controls were defined as the 1 or 2 patients with non-ESBL E. coli isolates identified just subsequent to the case isolate, and with the same specimen type and location of collection. Isolates obtained in the outpatient setting or within 48 hours of hospital admission were considered causes of community-associated infection. Further study details are as described (Banerjee, R J et al. “Predictors and molecular epidemiology of community-onset extended-spectrum beta-lactamase (ESBL) Escherichia coli infection in a Midwestern community,” 2013 Infect Control Hosp Epidemiol; in press).
# The resistance score was the total number of agents to which an isolate was resistant. This study was approved by the NorthShore and VA Medical Center institutional review boards.
# [2] = tested on: Escherichia coli clinical isolates from U.S. veterans; test: Susceptibility testing (broth microdilution or disk diffusion) at VAMCs with population back-calculations
# [3] = tested on: extraintestinal Escherichia coli isolates; test: Antimicrobial susceptibility testing (CLSI breakpoints), Olmsted County isolates
smiles,measurement,setting,value
"Cc1nnc(SCC2=C(C(=O)O)N3C(=O)[C@@H](NC(=O)Cn4cnnn4)[C@H]3SC2)s1 [Cefazolin, cefazolin]",No. resistant (column %),"[1]; ESBL-negative isolates, All N = 167",10 (6)
same,No. resistant (column %),"[1]; ESBL-negative isolates, Non-ST131 N = 145",9 (6)
same,No. resistant (column %),"[1]; ESBL-negative isolates, ST131 N = 22",1 (5)
same,No. resistant (column %),"[1]; ESBL-positive isolates, All N = 100",99 (99)
same,No. resistant (column %),"[1]; ESBL-positive isolates, Non-ST131 N = 51",51 (100)
same,No. resistant (column %),"[1]; ESBL-positive isolates, ST131 N = 49",48 (98)
same,"No. of resistant isolates (column %), H30-Rx (N = 47)",[1]; H30-Rx subclone isolates (N = 47) within the H30 ST131 subclone,43 (91) No. (column %)
same,"No. of resistant isolates (column %), H30, non-Rx (N = 15)",[1]; H30 non-Rx isolates (N = 15) within the H30 ST131 subclone,5 (33) No. (column %)
same,"No. of resistant isolates (column %), H30 (N = 62)",[1]; H30 subclone isolates (N = 62) among 71 E. coli ST131 isolates,48 (77) No. (column %)
same,"No. of resistant isolates (column %), Non-H30 (N = 9)",[1]; non-H30 isolates (N = 9) among 71 E. coli ST131 isolates,1 (11) No. (column %)
same,"Prevalence of resistance, H30 ST131",[2]; H30 ST131 subclone isolates (H30 subclone vs. others),27
same,"Prevalence of resistance, ST131",[2]; ST131 isolates (ST131 vs. others),29
same,"Prevalence of resistance, Total (%)",[2]; all isolates,17%
same,"Prevalence of resistance, Others (%)",[2]; all non-H30 isolates (H30 subclone vs. others),14%
same,"Prevalence of resistance, Others (%)",[2]; all non-ST131 isolates (ST131 vs. others),12%
same,Estimated fraction due to ST131,[2]; fraction of resistance phenotype due to ST131,.47
same,"Overall prevalence in population, %","[2]; resistance phenotype, back-calculated with 29% FQ resistance",17%
same,Prevalence ratio of resistance,[2]; resistance prevalence among H30 ST131 subclone isolates relative to all other isolates,2.0
same,Prevalence ratio of resistance,[2]; resistance prevalence among ST131 isolates relative to all other isolates,2.3
same,No. of resistant isolates (column %),"[3]; All isolates, N = 299",93 (31)
same,Resistance prevalence among H30 ST131,"[3]; H30 ST131 subclone, N = 70",58%
same,No. of resistant isolates (column %),"[3]; Other STs, N = 129",30 (23)
same,No. of resistant isolates (column %),"[3]; ST9, N = 32",3 (9)
same,No. of resistant isolates (column %),"[3]; ST69, N = 15",5 (33)
same,No. of resistant isolates (column %),"[3]; ST73, N = 25",7 (28)
same,No. of resistant isolates (column %),"[3]; ST127, N = 18",3 (17)
same,No. of resistant isolates (column %),"[3]; ST131, N = 80",45 (57)
same,Resistance prevalence among non-H30 ST131,"[3]; non-H30 ST131, N = 10",50%

# Source: patent US9834823B2, “Primers, assays and methods for detecting an E. coli subtype” (priority 2012, dated 2017)
